System: non-transgenic plants (soybean seedlings), wounded axillary areas
Experiment: Glyphosate top selection dose finding: suppression of axillary meristem regeneration
Format: in vivo
Details: 10, 25, 50, 75, 100 or 200 uM applied on the wounded axillary areas, non-lethal but sufficient to suppress regeneration within 2 weeks
Excerpt: 1) Germination: Soybean seeds were sown in 2.5 inch pots, two seeds in each pot. 4-7 day old seedlings grown from the seeds were used for cotyledon axillary meristem transformation.
2) Wound axillary meristems: The axillary meristems located in the axil of cotyledons were completely removed. The stem cells located in the base of the axillary meristem were transformed using Agrobacterium as described below. To break the dormancy of the axillary meristem, the primary shoot meristem was removed at the same time, or 3-7 days' later.
5) Selection: To determine the glyphosate concentrations effectively suppressing axillary meristem regeneration in top selection, non-transgenic plants were used and 10 uM to 200 uM glyphosate (specifically 10, 25, 50, 75, 100, or 200 uM glyphosate) was applied on the wounded axillary areas.

Question: For O=C(O)CNCP(=O)(O)O [glyphosate], which “glyphosate concentrations effectively suppressing axillary meristem regeneration in top selection” value is on record?
Answer: Its value is 75 to 200 µM.

Reference: US20220389437A1, “METHODS OF IN PLANTA TRAN[…] AXILLARY MERISTEM” (SYNGENTA CROP PROTECTION AG, priority 2019, published 2022)
